From patent US8791132B2, “Compounds and methods for treatment of hypertension” (Medivation Technologies, Inc., priority 2011, dated 2014) come the findings set out here.

Like-named read-outs stand apart in the source and are kept apart here.

The target of assay [1] is T1, human recombinant adrenergic α2B receptor (Homo sapiens, UniProt P18089).
T1 construct: expressed in transfected cells; host or cells: CHO-K1
T1 sequence (P18089 1-450): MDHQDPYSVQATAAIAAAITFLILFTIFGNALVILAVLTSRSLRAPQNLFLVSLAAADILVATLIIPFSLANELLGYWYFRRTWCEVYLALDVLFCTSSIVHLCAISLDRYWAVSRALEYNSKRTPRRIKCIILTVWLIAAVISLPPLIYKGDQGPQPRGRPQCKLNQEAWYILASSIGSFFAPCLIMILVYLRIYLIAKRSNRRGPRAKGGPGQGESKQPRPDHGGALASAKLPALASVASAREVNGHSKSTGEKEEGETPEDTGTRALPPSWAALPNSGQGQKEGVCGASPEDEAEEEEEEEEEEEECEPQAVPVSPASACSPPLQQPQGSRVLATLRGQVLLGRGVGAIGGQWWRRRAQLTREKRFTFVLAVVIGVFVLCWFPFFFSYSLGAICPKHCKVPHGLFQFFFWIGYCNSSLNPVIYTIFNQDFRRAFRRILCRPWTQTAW
Briefly: Radioligand binding, adrenergic α2B ([3H]Rauwolscine). The conditions noted are these: for Percentage inhibition of ligand binding, Adrenergic α2B (0.03 μM) / Percentage inhibition of ligand binding, Adrenergic α2B: 0.03 µM. The method, boiled down:
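Membranes from CHO-K1 cells expressing human recombinant α2B, in 50 mM Tris-HCl pH 7.4, 12.5 mM MgCl2, 1 mM EDTA, 0.2% BSA, incubated with compound and 2.5 nM [3H]Rauwolscine, 60 min, 25 °C.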

Assay [2] has as its target T2, human recombinant adrenergic α2A receptor (Homo sapiens, UniProt P08913).
T2 construct: expressed in transfected cells; host or cells: insect Sf9 cells
T2 sequence (P08913 1-465): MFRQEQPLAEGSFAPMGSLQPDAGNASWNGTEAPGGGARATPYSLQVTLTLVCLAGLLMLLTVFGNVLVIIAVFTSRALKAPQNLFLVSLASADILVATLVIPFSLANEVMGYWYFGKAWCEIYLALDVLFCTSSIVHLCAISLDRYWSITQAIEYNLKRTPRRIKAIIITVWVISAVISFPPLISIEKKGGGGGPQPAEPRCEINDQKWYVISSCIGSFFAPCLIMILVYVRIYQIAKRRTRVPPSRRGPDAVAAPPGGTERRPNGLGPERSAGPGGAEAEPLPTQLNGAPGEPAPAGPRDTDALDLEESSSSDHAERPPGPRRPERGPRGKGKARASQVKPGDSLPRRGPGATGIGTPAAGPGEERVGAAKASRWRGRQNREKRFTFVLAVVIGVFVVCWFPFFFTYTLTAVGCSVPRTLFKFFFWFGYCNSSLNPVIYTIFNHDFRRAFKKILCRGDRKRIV
Briefly: Radioligand binding, adrenergic α2A ([3H]MK-912). The settings on record: for Percentage inhibition of ligand binding, Adrenergic α2A (0.1 μM) / Percentage inhibition of ligand binding, Adrenergic α2A: 0.1 µM. The method, boiled down:
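Sf9-expressed receptor was incubated with compound for 60 min at 25 °C in modified Tris-HCl buffer, pH 7.4. Nonspecific binding was taken as that remaining with 10 μM WB-4101.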

The target in assay [3] is T3, rat adrenergic α1B receptor (Rattus norvegicus, UniProt P15823).
T3 construct: rat adrenergic α1B receptor obtained from Wistar Rat liver; from tissue; host or cells: Wistar rat liver
T3 sequence (P15823 1-515): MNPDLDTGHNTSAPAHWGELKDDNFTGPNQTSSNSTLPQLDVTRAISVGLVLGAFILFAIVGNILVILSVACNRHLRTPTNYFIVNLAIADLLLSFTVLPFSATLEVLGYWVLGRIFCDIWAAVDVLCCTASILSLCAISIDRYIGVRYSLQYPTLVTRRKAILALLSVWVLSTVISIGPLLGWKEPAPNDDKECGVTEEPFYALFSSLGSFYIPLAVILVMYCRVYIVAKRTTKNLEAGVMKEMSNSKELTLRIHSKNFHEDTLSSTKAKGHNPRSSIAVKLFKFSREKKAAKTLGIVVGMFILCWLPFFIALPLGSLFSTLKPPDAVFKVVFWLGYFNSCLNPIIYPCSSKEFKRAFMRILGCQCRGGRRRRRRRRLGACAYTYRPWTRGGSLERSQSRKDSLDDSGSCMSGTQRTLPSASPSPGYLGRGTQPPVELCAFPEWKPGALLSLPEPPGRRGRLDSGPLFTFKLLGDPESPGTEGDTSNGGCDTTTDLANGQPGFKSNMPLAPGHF
Put plainly: Radioligand binding, adrenergic α1B ([3H]Prazosin). The method, boiled down:
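Incubation ran 60 min at 25 °C in Tris-HCl buffer (50 mM, pH 7.4, 0.5 mM EDTA) with Wistar rat liver α1B receptor. 10 μM phentolamine set non-specific binding.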

Setting [4] is: compound at 0.03 μM, [3H]Rauwolscine, repeat datapoints each shown.
[5] abbreviates: compound at 0.1 μM, [3H]MK-912, repeat datapoints each shown.
The mark [6] stands for this setting: compound at 0.1 μM, [3H]Prazosin, repeat datapoints each shown, 0.1 µM.
The mark [7] stands for this setting: 0.03 μM compound, read-out: Percentage inhibition of ligand binding, Adrenergic α2B.
Setting [8] is: 0.1 μM compound, read-out: Percentage inhibition of ligand binding, Adrenergic α2A.
The mark [9] stands for this setting: 0.1 μM compound, read-out: Percentage inhibition of ligand binding, Adrenergic α1B.
Setting [10] is: read-out: Percentage inhibition of ligand binding, Adrenergic α2B (0.03 μM), compound at 0.03 μM, [3H]Rauwolscine, repeat datapoints each shown.
[11] abbreviates: read-out: Percentage inhibition of ligand binding, Adrenergic α2A (0.1 μM), compound at 0.1 μM, [3H]MK-912, repeat datapoints each shown.
Setting [12] is: read-out: Percentage inhibition of ligand binding, Adrenergic α1B (0.1 μM), compound at 0.1 μM, [3H]Prazosin, repeat datapoints each shown.

Take `Cc1ccc2c(c1)c1c(n2CC(CC(O)C(C)(C)C)c2ccncc2)CCN(C)C1` (single isomer, unassigned) [II-227d, 6-(2,8-dimethyl-1,2,3,4-tetrahydro-pyrido[4,3-b]indol-5-yl)-2,2-dimethyl-5-pyridin-4-yl-hexan-3-ol]: the “Percentage inhibition of ligand binding, Adrenergic α2B (0.03 μM)” value (from here on “Percentage inhibition … (0.03 μM)”) in assay [1] (setting [4]) worked out at 26%. Further, the “Percentage inhibition of ligand binding, Adrenergic α2A (0.1 μM)” value in assay [2] (setting [5]) is on record as 6%. Besides, the “Percentage inhibition of ligand binding, Adrenergic α1B (0.1 μM)” value in assay [3] (setting [6]) was 12%.

Regarding `Cc1cnc2c(c1)c1c(n2CC(O)c2ccncc2)CCN(C)C1` (stereo not drawn) [compound 55, 2-(3,6-dimethyl-5,6,7,8-tetrahydro-1,6,9-triaza-fluoren-9-yl)-1-pyridin-4-yl-ethanol], in assay [1] (compound at 0.03 μM, [3H]Rauwolscine, repeat assays, each datapoint shown), the “Percentage inhibition of ligand binding, Adrenergic α2B” value is reported as 63%. Moreover, the inhibition – broadly, the relative decrease from the control value, in per cent – at 0.1 µM in assay [2] (compound at 0.1 μM, [3H]MK-912, repeat assays, each datapoint shown, read-out: Percentage inhibition of ligand binding, Adrenergic α2A) came out at 13%. The “Percentage inhibition of ligand binding, Adrenergic α1B” value in assay [3] (compound at 0.1 μM, [3H]Prazosin, repeat assays, each datapoint shown, 0.1 µM) is on record as 37%.

`OCCN1CCc2c(c3cc(Cl)ccc3n2CC(O)c2cccnc2)C1` (single isomer, unassigned) [II-94b]: in assay [1] (0.03 μM compound), the “Percentage inhibition of ligand binding, Adrenergic α2B” value was 24%. Also, the “Percentage inhibition of ligand binding, Adrenergic α2A” value in assay [2] (0.1 μM compound) is on record as −5%. In assay [3] (0.1 μM compound, 0.1 µM), the “Percentage inhibition of ligand binding, Adrenergic α1B” value was 7%.

With `Cc1ccc2c(c1)c1c(n2CC(C)(OC(=O)C(C)(C)C)c2cccnc2)CCN(C)C1` (stereo not drawn) [II-16a, 2,2-dimethyl-propionic acid 2-(2,8-dimethyl-1,2,3,4-tetrahydro-pyrido[4,3-b]indol-5-yl)-1-methyl-1-pyridin-3-yl-ethyl ester], the inhibition at 0.03 µM in assay [1] (setting [7]) was determined as 39%. Also, the inhibition at 0.1 µM in assay [2] (setting [8]) was 11%; in assay [3] (setting [9]), 20%.

With `Cc1cnc2c(c1)c1c(n2CC(O)c2ccc(C)nc2)CCN(C)C1` (single isomer, unassigned) [II-100b], the “Percentage inhibition of ligand binding, Adrenergic α2B” value in assay [1] (0.03 μM compound) came to 1%. In addition, in assay [2] (0.1 μM compound), the “Percentage inhibition of ligand binding, Adrenergic α2A” value is 4%. In assay [3] (0.1 μM compound), the “Percentage inhibition of ligand binding, Adrenergic α1B” value was 24%.

For `Cc1ccc(CCn2c3c(c4c(Br)ccc(Br)c42)CN(C)CC3)cn1` [II-251], the inhibition at 0.03 µM in assay [1] (setting [10]) is -4%. Further, the inhibition at 0.1 µM is 81% in assay [2] (setting [11]) and -7% in assay [3] (setting [12]).

With `Cc1cc2c3c(n(CC(C)(O)c4cccnc4)c2cc1Cl)CCN(C)C3` (single isomer, unassigned) [II-123a, 1-(7-chloro-2,8-dimethyl-3,4-dihydro-1H-pyrido[4,3-b]indol-5(2H)-yl)-2-(pyridin-3-yl)propan-2-ol], the “Percentage inhibition … (0.03 μM)” value in assay [1] (setting [4]) is listed as 62%. Further, the “Percentage inhibition of ligand binding, Adrenergic α2A (0.1 μM)” value in assay [2] (setting [5]) came out at 16%. Besides, the inhibition at 0.1 µM in assay [3] (setting [12]) was 41%.

`Cc1ccc(C(O)Cn2c3c(c4cc(C)ccc42)CN(C)CC3)cc1` (single isomer, unassigned) [183b, 2-(1,2,3,4-tetrahydro-2,8-dimethylpyrido[4,3-b]indol-5-yl)-1-p-tolylethanol]: the inhibition at 0.03 µM in assay [1] (setting [10]) was 98%; in assay [2] (read-out: Percentage inhibition of ligand binding, Adrenergic α2A (0.03 μM), compound at 0.03 μM, [3H]MK-912, repeat datapoints each shown), 84%. Besides, in assay [2], the Ki (commonly the equilibrium dissociation constant of an inhibitor or competing ligand from its target) came to 2.72 nM. For the same compound, the “Percentage inhibition of ligand binding, Adrenergic α2A (0.1 μM)” value in assay [2] (setting [5]) is recorded as 97%. For the same compound, the inhibition at 0.1 µM in assay [2] (setting [11]) and in assay [3] (setting [12]) was 93% each time.

For `Cc1ccc2c(c1)c1c(n2CCc2cncc(F)c2)CCN(C)C1` [compound 117, 5-[2-(5-fluoro-pyridin-3-yl)-ethyl]-2,8-dimethyl-2,3,4,5-tetrahydro-1H-pyrido[4,3-b]indole], the inhibition at 0.1 µM in assay [1] (read-out: Percentage inhibition of ligand binding, Adrenergic α2B (0.1 μM), compound at 0.1 μM, [3H]Rauwolscine, repeat datapoints each shown) amounted to 68%; in assay [2] (setting [11]) it was 18%; in assay [3] (setting [12]), 59%.

Turning to `C=CCN1CCc2c(c3cc(C)ccc3n2CC(O)c2ccncc2)C1` (stereo not drawn) [II-63, 2-(2-allyl-1,2,3,4-tetrahydro-8-methylpyrido[4,3-b]indol-5-yl)-1-(pyridin-4-yl)ethanol], in assay [1] (setting [7]), the inhibition at 0.03 µM is 90%. Moreover, the inhibition at 0.1 µM in assay [2] (setting [8]) worked out at 39%; in assay [3] (setting [9]), 55%.

Consider `CC1Cc2c(c3cc(Cl)ccc3n2CC(C)(O)c2cccnc2)CN1C` (single isomer, unassigned) [II-147d, 1-(8-chloro-2,3-dimethyl-3,4-dihydro-1H-pyrido[4,3-b]indol-5(2H)-yl)-2-(pyridin-3-yl)propan-2-ol], for which, in assay [1] (setting [4]), the “Percentage inhibition … (0.03 μM)” value was 13%. Moreover, the “Percentage inhibition of ligand binding, Adrenergic α2A (0.1 μM)” value in assay [2] (setting [5]) was 4%. Moreover, the “Percentage inhibition of ligand binding, Adrenergic α1B (0.1 μM)” value in assay [3] (setting [6]) was found to be 10%.

Take `CC(=O)c1ccc2c(c1)c1c(n2CC(O)c2ccncc2)CCN(C)C1` (single isomer, unassigned) [49a, 1-(2,3,4,5-tetrahydro-5-(2-hydroxy-2-(pyridin-4-yl)ethyl)-2-methyl-1H-pyrido[4,3-b]indol-8-yl)ethanone]: the inhibition at 0.03 µM in assay [1] (compound at 0.03 μM, [3H]Rauwolscine, repeat assays, each datapoint shown, read-out: Percentage inhibition of ligand binding, Adrenergic α2B) came out at 18%. For the same compound, the “Percentage inhibition of ligand binding, Adrenergic α2A” value in assay [2] (compound at 0.1 μM, [3H]MK-912, repeat assays, each datapoint shown) is on record as 1%. The inhibition at 0.1 µM in assay [3] (compound at 0.1 μM, [3H]Prazosin, repeat assays, each datapoint shown, read-out: Percentage inhibition of ligand binding, Adrenergic α1B) amounted to 4%.

On to `Cc1cnc2c(c1)c1c(n2CCc2ccc(F)cc2)CCN2CCCC12` (stereo not drawn) [compound 336], for which the inhibition at 0.03 µM in assay [1] (setting [7]) stood at 104%. In addition, the inhibition at 0.1 µM in assay [2] (setting [8]) amounted to 66%; in assay [3] (setting [9]) it was 98%.

In the case of `Cc1ccc2c(c1)c1c(n2CC(N=[N+]=[N-])c2cnccn2)CCN2CCCC12` (stereo not drawn) [II-261, 6-(2-azido-2-pyrazin-2-yl-ethyl)-9-methyl-2,3,4,5,6,10c-hexahydro-1H-3a,6-diaza-cyclopenta[c]fluorene], the inhibition at 0.03 µM in assay [1] (setting [10]) worked out at 103%. Also, the inhibition at 0.1 µM in assay [2] (setting [11]) turned out to be 70%; in assay [3] (setting [12]), 71%.

As to `Cc1ccc2c(c1)c1c(n2CC(C)(O)c2cccnc2)CC(C)N(C)C1` (single isomer, unassigned) [II-146a, 2-(pyridin-3-yl)-1-(2,3,8-trimethyl-3,4-dihydro-1H-pyrido[4,3-b]indol-5(2H)-yl)propan-2-ol], the “Percentage inhibition … (0.03 μM)” value in assay [1] (setting [4]) was 102%. Further, the “Percentage inhibition of ligand binding, Adrenergic α2A (0.1 μM)” value in assay [2] (setting [5]) is 47%. For the same compound, in assay [3] (setting [12]), the inhibition at 0.1 µM came out at 23%.
